Test results from BindingDB's records for doi:10.7270/Q22Z140X (Burnham Center For Chemical Genomics, 2010).

target: T1, NACHT, LRR and PYD domains-containing protein 1 (Homo sapiens, UniProt Q9C000); assay: NALP1 inhibitors in yeast, dose response, luminescent (AID 488860)
T1 sequence (Q9C000 whole entry): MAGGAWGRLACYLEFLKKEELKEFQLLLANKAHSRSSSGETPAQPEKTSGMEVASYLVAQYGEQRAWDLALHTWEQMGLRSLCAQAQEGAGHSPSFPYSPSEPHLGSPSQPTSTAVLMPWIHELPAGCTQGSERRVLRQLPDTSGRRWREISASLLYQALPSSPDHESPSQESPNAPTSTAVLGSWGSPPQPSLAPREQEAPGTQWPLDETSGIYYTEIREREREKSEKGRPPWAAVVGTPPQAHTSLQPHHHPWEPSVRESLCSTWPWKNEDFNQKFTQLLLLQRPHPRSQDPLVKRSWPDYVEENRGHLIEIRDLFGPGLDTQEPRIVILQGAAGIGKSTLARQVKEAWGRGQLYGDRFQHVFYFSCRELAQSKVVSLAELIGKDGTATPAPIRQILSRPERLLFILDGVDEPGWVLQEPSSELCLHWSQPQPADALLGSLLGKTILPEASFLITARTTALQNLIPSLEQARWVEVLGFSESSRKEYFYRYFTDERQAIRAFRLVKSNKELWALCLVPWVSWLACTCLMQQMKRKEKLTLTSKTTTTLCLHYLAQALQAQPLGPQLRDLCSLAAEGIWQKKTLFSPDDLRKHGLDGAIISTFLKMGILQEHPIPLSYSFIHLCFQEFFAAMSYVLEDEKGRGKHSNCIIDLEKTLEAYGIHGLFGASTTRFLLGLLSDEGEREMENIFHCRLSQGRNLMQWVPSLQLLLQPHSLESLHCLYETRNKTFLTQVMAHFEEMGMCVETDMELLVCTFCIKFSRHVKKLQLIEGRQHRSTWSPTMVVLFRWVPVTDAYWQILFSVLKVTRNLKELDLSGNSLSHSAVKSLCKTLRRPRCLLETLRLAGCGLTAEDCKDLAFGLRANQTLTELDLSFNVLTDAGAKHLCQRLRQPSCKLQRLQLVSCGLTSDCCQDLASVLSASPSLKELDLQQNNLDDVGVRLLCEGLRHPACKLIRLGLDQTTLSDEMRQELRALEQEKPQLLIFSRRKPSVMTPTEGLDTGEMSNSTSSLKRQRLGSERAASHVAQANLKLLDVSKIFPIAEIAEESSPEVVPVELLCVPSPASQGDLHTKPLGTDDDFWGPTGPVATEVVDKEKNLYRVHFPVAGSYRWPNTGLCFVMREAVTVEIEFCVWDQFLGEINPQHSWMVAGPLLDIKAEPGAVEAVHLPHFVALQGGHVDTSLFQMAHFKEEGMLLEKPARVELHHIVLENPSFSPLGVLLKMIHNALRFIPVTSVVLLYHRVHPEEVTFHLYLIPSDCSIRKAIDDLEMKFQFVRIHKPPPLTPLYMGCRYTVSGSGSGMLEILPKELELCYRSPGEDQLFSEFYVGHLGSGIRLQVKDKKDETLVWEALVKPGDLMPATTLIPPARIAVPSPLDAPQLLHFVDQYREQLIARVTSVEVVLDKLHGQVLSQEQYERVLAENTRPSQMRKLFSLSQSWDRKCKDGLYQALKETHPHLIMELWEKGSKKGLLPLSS

| Compound | IC50 |
| --- | --- |
| Oc1cc(Sc2nnnn2-c2ccccc2)c(O)n1-c1cccc(Cl)c1 | 5.83 µM |
| Cc1ccc(-n2c(O)cc(Sc3ccccc3C(=O)O)c2O)cc1 | 34.4 µM |
| COc1ccccc1-n1c(O)c2c(c1O)CC(c1ccccc1)CC2 (stereo not drawn) | > 100 µM |
